SMILES strings stand for the structures. Activity calls are given as the source filed them. The rule behind the calls is not given here.

In general, inhibition refers to the relative decrease from the control value, in per cent. A lower inhibition goes with little suppression.

In series [1] the target is T1, Histone deacetylase (Homo sapiens) (UniProt Q13547+O15379+Q9UBN7+Q92769+Q9UQL6+Q8WUI4+Q9BY41+Q96DB2+P56524+Q9UKV0+Q969S8). The experiment in a line: Inhibition of histone deacetylase in Homo sapiens (human) HepG2 nuclear extract assessed as low level acetylation of H2B at 100 uM after 8 hr by TAU PAGE analysis. It counts as protein assay.
Series [2] addresses T1, Histone deacetylase (Homo sapiens). The experiment in a line: Inhibition of histone deacetylase in Homo sapiens (human) HepG2 nuclear extract assessed as low level acetylation of H2A at 100 uM after 8 hr by TAU PAGE analysis. It is filed as protein assay.
Series [3] shares this target. The series can be described thus: Inhibition of histone deacetylase in Homo sapiens (human) HepG2 nuclear extract assessed as hyperacetylation of H4 at 100 uM after 8 hr by TAU PAGE analysis. It counts as protein assay.
The target is the same in series [4]. The experiment in a line: Inhibition of histone deacetylase in Homo sapiens (human) HepG2 nuclear extract assessed as hyperacetylation of H3 at 100 uM after 8 hr by TAU PAGE analysis. It counts as protein assay.
The target is the same in series [5]. The series can be described thus: Inhibition of histone deacetylase in Homo sapiens (human) HepG2 cells at 100 uM after 8 hr by colorimetry. It is filed as cell-based.
Series [6] relates to HepG2. The experiment in a line: Antiproliferative activity against Homo sapiens (human) HepG2 cells at 100 uM after 120 hr by MTT assay. It is filed as functional. The conditions noted are these: HepG2, 120 h. For orientation: Formazan colour is commonly taken as a measure of viable cells.
Series [7] can be described thus: Cytotoxicity against Homo sapiens (human) WRL68 cells at 100 uM after 120 hr by MTT assay. It is filed as cell-based. Conditions: read-out: INH.
The nature of series [8]: Cytotoxicity against Homo sapiens (human) WRL68 cells at 100 uM after 48 hr by MTT assay. Conditions: read-out: INH. It is filed as cell-based.
The subject of series [9] is HepG2. The experiment in a line: Antiproliferative activity against Homo sapiens (human) HepG2 cells at 100 uM after 48 hr by MTT assay. It counts as functional. Conditions: HepG2, 48 h.
The test system of series [10] is HepG2. The experiment in a line: Antiproliferative activity against Homo sapiens (human) HepG2 cells assessed as elongated shaped cells. It is filed as functional, cell-based.
Series [11] deals with T1, Histone deacetylase (Homo sapiens). The series can be described thus: Inhibition of histone deacetylase in Homo sapiens (human) HepG2 cells assessed as hyperacetylation of H3 at 100 uM after 8 hr by Western blot analysis. It counts as cell-based. A general note: Immunoblotting shows a protein as a band on a membrane.
The target is the same in series [12]. The conditions noted are these: HepG2, 1 mM.
Description: Inhibition of histone deacetylase in Homo sapiens (human) HepG2 cells at 1 mM after 8 hr by colorimetry

With `O=C(NCCCCCCN1C(=O)CSC1=O)c1ccccc1`, the result (in series [1]; in series [2]; in series [3]; in [4]; with HepG2 [10]; in series [11]) was Active. In series [5], this compound registered an inhibition of 42.1%. The inhibition at 100 µM in the series on HepG2 [6] is 83%; in the series on HepG2 [9], 42.3%. Moreover, in series [7], the cytotoxicity at 120 h, 100 µM is 92.3%. For the same compound, the cytotoxicity at 48 h, 100 µM in series [8] is 34.7%.

For `CCCC(=O)[O-].[Na+]`, the inhibition in series [12] is 52.3%.

In the case of `O=C1CSC(=O)N1CCCCCCNS(=O)(=O)c1ccccc1`, the outcome (in series [1]; in series [2]; in series [3]; in series [4]; in the series with HepG2 [10]; in series [11]) was Active. In series [5], this compound registered an inhibition of 56.9%. Besides, the inhibition at 100 µM in the series on HepG2 [6] was 69.5%; in the series with HepG2 [9], 57.3%. In series [7], the cytotoxicity at 120 h, 100 µM amounted to 55.6%. For the same compound, the cytotoxicity at 48 h, 100 µM in series [8] was determined as 37.5%.

These data come from ChEMBL document CHEMBL3045513, “Design, synthesis, and biological evaluation of novel 2,4-thiazolidinedione derivatives as histone deacetylase inhibitors targeting liver cancer cell line” (Med Chem Res, 2012).
